Patent US20030017599A1, “Assay for the detection of selectable marker expression in plants” (priority 1999, published 2003)

Columns and labels:
Format in all cases: in vivo, corn (Zea mays)
[1] = test system: Nontransgenic 3-week-old corn seedlings; test: Titration of selective agents with cotton rolls tied to the whorl
Experimental: Nontransgenic 3-week-old corn seedlings were assayed in order to determine the quantity of selective agent necessary in order to obtain a response. […] Cotton rolls were saturated with solutions consisting of 0.03% SILWET L-77 and various concentrations of each of these three antibiotics individually and tied to the whorl of plants to be tested.
The concentrations of genenticin tested were 25 mg/mL, 50 mg/mL, 75 mg/mL, and 100 mg/mL.

[2] = test system: Nontransgenic corn plants (H99); test: Kanamycin, paromomycin and the combination with and without surfactant; conditions: 20 μL, 5 plants, seven days
Experimental: Nontransgenic corn plants (H99) were tested at 24 days old using 5 plants for each treatment. Plants were treated with and without surfactant at two different concentrations of paromomycin, kanamycin, and the combination of paromomycin and kanamycin._On the day of application, an antibiotic solutions consisting of 750 mg/L or 1000 mg/L paromomycin and 0.06% (v/v) SILWET L-77 was prepared, as was a control solution consisting of 750 mg/L or 1000 mg/L of paromomycin in water. […] Antibiotic solution (20 μL) was applied to the whorl of each corn plant, from which any standing water has been removed beforehand.

[3] = test system: corn plants containing NPTII protein; test: Paromomycin as selective agent to identify corn plants containing NPTII protein (predicted); conditions: 10 μL of 1000 mg/L paromomycin and 0.06% (v/v) SILWET L-77; five days
Text: Samples of the plants may be taken and analyzed by ELISA for the presence or absence of NPTII protein prior to the start of the field test. […] Negative controls (i.e., nontransgenic plants) may be divided into two equal groups. […] The treated plants may then be scored for the presence or absence of necrosis five days after application of the antibiotic/[…]-77 solution or control solution. […] The field assay scores may then be correlated with the […] results.

[4] = 750 mg/L (each antibiotic), with 0.06% SILWET L-77
[5] = 750 mg/L (each antibiotic), without SILWET L-77
[6] = 1000 mg/L (each antibiotic), with 0.06% SILWET L-77
[7] = 1000 mg/L (each antibiotic), without SILWET L-77

SMILES	bleaching and necrosis in treated plant leaves ([1]; 300 mg/L, 500 mg/L and 750 mg/L in 0.03% SILWET L-77, two days)	bleaching and necrosis in treated plant leaves ([1]; 1000 mg/L in 0.03% SILWET L-77, two days)	number of plants with mild symptoms [2, 4]	number of plants with no symptoms [2, 4]	number of plants with severe necrosis [2, 4]	number of plants with mild symptoms [2, 5]	number of plants with no symptoms [2, 5]	number of plants with severe necrosis [2, 5]	number of plants with mild symptoms [2, 6]	number of plants with no symptoms [2, 6]	number of plants with severe necrosis [2, 6]	number of plants with mild symptoms [2, 7]	number of plants with no symptoms [2, 7]	number of plants with severe necrosis [2, 7]	necrosis relative to similarly treated leaves of corn plants that do not contain NPTII protein [3]
NC[C@@H]1O[C@H](O[C@H]2[C@@H](O)[C@H](O[C@@H]3[C@@H](O)[C@H](N)C[C@H](N)[C@H]3O[C@H]3O[C@H](CO)[C@@H](O)[C@H](O)[C@H]3N)O[C@@H]2CO)[C@H](N)[C@@H](O)[C@@H]1O [paromomycin]	Slight to moderate necrosis and some bleaching	extreme necrosis and some bleaching	0	2	3	0	5	0	0	1	4	0	5	0	reduced or no necrosis
NC[C@H]1O[C@H](O[C@H]2[C@H](O)[C@@H](O[C@H]3O[C@H](CO)[C@@H](O)[C@H](N)[C@H]3O)[C@H](N)C[C@@H]2N)[C@H](O)[C@@H](O)[C@@H]1O [kanamycin]			0	0	5	1	4	0	2	0	3	1	4	0	
